For one assay, the system named is EMT6. Description: Tumor growth inhibition, animal model for breast cancer II (EMT6). The conditions noted are these: Experimental Example 14, Dunnione 40 mg/kg oral every day from 11th day, Anti-CTLA4 antibody 200 μg/head i.p. 2 times a week from 11th day, Lapatinib 100 mg/kg oral every day from 11th day. Format: in vivo, BALB/c mice. As for the experimental part:
All mice used in the experiments were raised in a sterile animal room with constant temperature (22° C. to 26° C.) and constant humidity (55% to 60%), acclimatized for 1 week while sufficiently supplying typical solid feed (Samtako Inc., Korea) and water, and then used. All experiments were conducted after obtaining approval from the Institutional Animal Care and Use Committee in accordance with the laboratory animal care and ethics regulations of the Institutional Animal Care and Use Committee of Wonkwang University.
7-week-old BALB/c or C57BL/6 mice were used, and subcutaneously inoculated using a 1-mL insulin syringe within 30 minutes after mixing the mouse cancer cells with 0.2 mL of PBS.
After the cancer cell line was subcutaneously implanted, the administration of drugs was started when the size of the cancer reached 50 to 100 mm^3. The volumes (mm^3) of the tumors, which were generated after the inoculation, were measured at intervals of 3 days using a caliper, calculation was performed using the formula of […], and then the results thereof were compared. […]

For a further assay, the system named is 4T1-Luc. Description: Tumor metastasis analysis, photon emission amount after tumor resection (4T1-Luc). It is filed as in vivo, BALB/c mice. The conditions noted are these: Experimental Example 32; 17th day after primary tumor removal; dunnione 40 mg/kg oral daily; anti-CTLA4 antibody 200 μg/head intraperitoneal at intervals of 3 days; mitoxantrone 6 mg/kg intraperitoneal once on 1st day. As for the experimental part:
4T1-Luc (2.5×10^6 cells) as a mouse breast cancer cell line overexpressing a luciferase was implanted into mammary fat pads of BALB/c mice, and the tumor was removed through surgical resection when the size of the cancer reached 150 to 200 mm^3. The administration of drugs was started from the day after the tumor removal procedure, and the degree of cancer metastasis was measured by measuring the photon emission amount at intervals of 1 week from the 3rd day after the tumor removal procedure.
After sole administration or co-administration of respective drugs was performed according to the administration schedule listed in Table 35 below, the photon emission amount (fold) was measured on the 17th day according to the tumor metastasis assessment method described in Example 2.1, and the results thereof are shown in Table 35 and FIG. 32.

The test system of another assay is MC38. Description: Survival rate analysis, animal model for colorectal cancer I (MC38). It is filed as in vivo, C57BL/6 mice. Here is the method: After subcutaneous implantation of the cancer cell line, the survival rate was measured by recording the number of mice that died in each group every day. The measurement of survival rate was performed until the death of all mice in all groups or the death of all mice in the control. The average survival day was calculated by obtaining a survival curve using the survival rate.
After sole administration or co-administration of respective drugs was performed according to the administration schedules listed in Tables 36 and 37 below, the survival rates and the average survival days were calculated according to the survival rate analysis method described in Example 3.1, and the results thereof are respectively shown in Tables 36 and 37 and FIGS. 33 and 34.

[1] abbreviates: Experimental Example 34, dunnione 40 mg/kg oral daily from 6th day, anti-PD-1 antibody 200 μg/head intraperitoneal 2 times a week from 6th to 62nd day, 5-fluorouracil 50 mg/kg intraperitoneal once on 6th day.

As to `CC1OC2=C(C(=O)C(=O)c3ccccc32)C1(C)C` (centres unmarked) [Dunnione, 2,3,3-trimethyl-2H-benzo[g][1]benzofuran-4,5-dione], the “TGI (%)” value in the assay with EMT6 is reported as 9.7%. In the assay on 4T1-Luc, the Photon emission amount is recorded as 2805.3 ± 2352.3 fold. Further, the “Survival rate (%) on 38th day after cancer implantation” value in the assay on MC38 (Experimental Example 33, dunnione 40 mg/kg oral daily from 4th day, anti-PD-1 antibody 100 μg/head + anti-CTLA4 antibody 100 μg/head intraperitoneal, oxaliplatin 6 mg/kg + 5-fluorouracil 50 mg/kg intraperitoneal at intervals of 15 days, 3 times) is on record as 10%. In the assay with MC38 (setting [1]), this compound had an Average survival day of 28 days and a Total survival period of 22 to 45.

(Values after patent US20230255904A1, “PHARMACEUTICAL COMPOSITION FOR PREVENTING OR TREATING CANCER COMPRISING NAPHTHOQUINONE-BASED COMPOUND AND IMMUNE CHECKPOINT INHIBITOR AS ACTIVE INGREDIENTS” (NADIANBIO LTD., priority 2020, published 2023).)
